Results on seven compounds are retold here after ChEMBL document CHEMBL1201862, “PubChem BioAssay data set” (2004).

One data set has as its target HSP90 (Plasmodium falciparum 3D7, UniProt Q8IL32). In kind it is functional, organism-based.
A short description of data set [1]: Luminescence Cell-Based Dose Response to Identify Activators of 5'UTR Stem-Loop Driven Prion Protein mRNA Translation in H4-C Neuroglioblastoma Cells. [Related pubchem assays: 1829 (Project Summary), 1814 (Primary HTS)]. It counts as functional.
The nature of data set [2]: Luminescence Cell-Based Dose Confirmation HTS to Identify Activators of 5'UTR Stem-Loop Driven Alpha-Synuclein mRNA Translation in H4 Neuroglioblastoma Cells. [Related pubchem assays: 1829 (Project Summary), 1814 (Primary HTS)]. In kind it is functional.
Another data set has as its system H4. Description: Luminescence Cell-Based Dose Response HTS to Identify Activators of 5'UTR Stem-Loop Driven Prion Protein mRNA Translation in H4 Neuroglioblastoma Cells. [Related pubchem assays: 1829 (Project Summary), 1814 (Primary HTS)]. The note with it: Homo sapiens. It counts as functional.
The nature of data set [3]: Luminescence Cell-Based Dose Confirmation to Identify Activators of 5'UTR Stem-Loop Driven Alpha-Synuclein mRNA Translation in H4 Neuroglioblastoma Cells. [Related pubchem assays: 1829 (Project Summary), 1814 (Primary HTS)]. In kind it is functional.
For data set [4], the target named is Glycogen synthase kinase-3 alpha (Homo sapiens, UniProt P49840). Briefly: Inhibition of Human GSK-3 alpha Activity Measured in Biochemical System Using Microfluidics - 2063-06_Inhibitor_Dose_DryPowder_Activity_Set2. [Related pubchem assays (depositor defined):AID2709].
Glycogen synthase kinase-3 alpha, sequence (P49840 whole entry): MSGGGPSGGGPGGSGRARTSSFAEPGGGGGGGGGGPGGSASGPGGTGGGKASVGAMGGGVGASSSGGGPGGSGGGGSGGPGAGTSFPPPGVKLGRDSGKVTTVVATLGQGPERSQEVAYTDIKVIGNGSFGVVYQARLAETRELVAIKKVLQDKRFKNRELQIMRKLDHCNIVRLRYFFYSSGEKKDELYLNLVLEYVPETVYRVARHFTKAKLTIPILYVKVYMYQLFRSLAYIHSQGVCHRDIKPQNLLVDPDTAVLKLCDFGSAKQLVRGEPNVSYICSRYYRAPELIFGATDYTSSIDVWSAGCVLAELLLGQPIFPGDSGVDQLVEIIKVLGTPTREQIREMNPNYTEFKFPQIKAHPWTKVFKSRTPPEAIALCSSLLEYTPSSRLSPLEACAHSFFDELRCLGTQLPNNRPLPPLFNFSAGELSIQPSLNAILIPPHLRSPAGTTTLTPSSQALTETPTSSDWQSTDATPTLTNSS
Data set [5] addresses Cyclin-dependent kinase 5/CDK5 activator 1 (Homo sapiens, UniProt Q00535). Briefly: CDK5-p25 kinase inhibitors, specificity check, dose response, selectivity assay for GSK-3 alpha inhibitor project, biochemical, microfluidic mobility shift, dry powder (AID 588430).
For data set [6], the target named is Glycogen synthase kinase-3 beta (Homo sapiens, UniProt P49841). Briefly: Inhibition of Human GSK-3 beta Activity Measured in Biochemical System Using Microfluidics - 2063-05_Inhibitor_Dose_DryPowder_Activity_Set2. [Related pubchem assays (depositor defined):AID2709].
Data set [7] is described as follows: Luminescence Cell-Based Dose Response HTS to Identify Activators of Luciferase Translation or Activity in H4 […] Cells. [Related pubchem assays: 1829 (Project Summary), 1814 (Primary HTS)]. It counts as functional.
The nature of data set [8]: Luminescence Cell-Based Dose Response to Identify Activators of Luciferase Translation or Activity in H4-C Neuroglioblastoma Cells. [Related pubchem assays: 1829 (Project Summary), 1814 (Primary HTS)]. It counts as functional.
Data set [9] concerns the target T1, Insulin-degrading enzyme (Homo sapiens, UniProt P14735).
T1 sequence (P14735 whole entry): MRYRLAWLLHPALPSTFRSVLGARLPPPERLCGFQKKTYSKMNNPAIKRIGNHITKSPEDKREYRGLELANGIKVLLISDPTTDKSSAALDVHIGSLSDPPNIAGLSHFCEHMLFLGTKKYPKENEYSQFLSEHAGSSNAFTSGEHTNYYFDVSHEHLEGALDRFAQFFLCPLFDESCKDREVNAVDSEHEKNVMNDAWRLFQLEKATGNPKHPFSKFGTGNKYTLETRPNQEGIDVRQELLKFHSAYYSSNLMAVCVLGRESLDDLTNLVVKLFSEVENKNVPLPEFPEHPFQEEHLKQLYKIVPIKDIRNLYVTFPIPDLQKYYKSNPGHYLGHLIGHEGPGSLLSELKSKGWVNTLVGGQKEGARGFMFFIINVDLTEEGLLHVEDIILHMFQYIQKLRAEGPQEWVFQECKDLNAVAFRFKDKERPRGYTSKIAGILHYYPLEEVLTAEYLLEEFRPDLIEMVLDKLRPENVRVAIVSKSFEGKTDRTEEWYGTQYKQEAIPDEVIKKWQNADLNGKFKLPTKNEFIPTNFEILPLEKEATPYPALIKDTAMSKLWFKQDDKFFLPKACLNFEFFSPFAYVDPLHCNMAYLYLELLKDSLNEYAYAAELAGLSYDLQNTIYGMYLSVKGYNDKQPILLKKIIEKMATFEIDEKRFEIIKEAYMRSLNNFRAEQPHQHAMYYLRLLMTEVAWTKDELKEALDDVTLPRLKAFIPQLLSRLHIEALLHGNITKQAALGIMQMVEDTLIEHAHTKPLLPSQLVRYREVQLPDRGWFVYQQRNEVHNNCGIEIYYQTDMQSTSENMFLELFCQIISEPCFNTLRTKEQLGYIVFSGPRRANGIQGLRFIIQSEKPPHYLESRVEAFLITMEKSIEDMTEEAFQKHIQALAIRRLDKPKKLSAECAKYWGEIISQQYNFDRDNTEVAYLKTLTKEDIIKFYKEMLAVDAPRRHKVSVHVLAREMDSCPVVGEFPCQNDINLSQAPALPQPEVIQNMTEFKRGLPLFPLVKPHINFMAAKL
Description: activators of recombinant IDE enzyme, dose response, counter-screen for IDE activator project, biochemical, fluorescence polarization (AID 588681). Background: The purpose of a counterscreen is to sort out artefacts and off-target activity.

Data set [10] concerns the target T1, Insulin-degrading enzyme. Description: activators of endogenous IDE in HEK cells, dose response, cell-based, fluorescence polarization (AID 588439). In kind it is functional. (In fluorescence polarisation assays a small probe gives low polarisation when free and higher when bound to something large.)
Data set [11] deals with HEK293. Briefly: optical interference in Abeta FP readout, dose response, artefact control for IDE activator project, biochemical, fluorescence polarization (AID 588442). The note with it: Homo sapiens. It counts as functional, cell-based.
Data set [12] relates to HEK293. Description: HEK cell cytotoxicity by LDH release, dose response, cytotoxicity control for IDE activator project, fluorescence, HEK cells (AID 588440).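 Also: cytotoxicity by LDH release measuring loss of membrane integrity.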 In kind it is functional, cell-based. The settings on record: Homo sapiens. (In general: Release of lactate dehydrogenase indicates damage to the cell membrane.)
The target of another data set is Cytochrome P450 2C19 (Homo sapiens, UniProt P33261). Description: Cytochrome panel assay with activity outcomes. Panel member name: p450-cyp2c19 Compounds with AC50 equal or less than 10 uM are considered active. It counts as functional. The note with it: read-out: AC50.
In data set [13] the target is DNA dC->dU-editing enzyme APOBEC-3A (Homo sapiens, UniProt P31941). Description: SAR analysis of small molecule inhibitors of APOBEC3A DNA Deaminase via a fluorescence-based single-stranded DNA deaminase assay. The note with it: read-out: IC50_Mean. In kind it is functional.
DNA dC->dU-editing enzyme APOBEC-3A, sequence (P31941 whole entry): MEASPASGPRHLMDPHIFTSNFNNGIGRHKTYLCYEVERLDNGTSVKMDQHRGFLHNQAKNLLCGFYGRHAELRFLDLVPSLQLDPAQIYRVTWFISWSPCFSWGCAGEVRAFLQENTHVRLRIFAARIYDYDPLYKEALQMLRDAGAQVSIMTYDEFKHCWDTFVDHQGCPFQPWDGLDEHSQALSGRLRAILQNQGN
In the next data set the target is Cytochrome P450 2C9 (Homo sapiens, UniProt P11712).
Cytochrome P450 2C9, sequence (P11712 whole entry): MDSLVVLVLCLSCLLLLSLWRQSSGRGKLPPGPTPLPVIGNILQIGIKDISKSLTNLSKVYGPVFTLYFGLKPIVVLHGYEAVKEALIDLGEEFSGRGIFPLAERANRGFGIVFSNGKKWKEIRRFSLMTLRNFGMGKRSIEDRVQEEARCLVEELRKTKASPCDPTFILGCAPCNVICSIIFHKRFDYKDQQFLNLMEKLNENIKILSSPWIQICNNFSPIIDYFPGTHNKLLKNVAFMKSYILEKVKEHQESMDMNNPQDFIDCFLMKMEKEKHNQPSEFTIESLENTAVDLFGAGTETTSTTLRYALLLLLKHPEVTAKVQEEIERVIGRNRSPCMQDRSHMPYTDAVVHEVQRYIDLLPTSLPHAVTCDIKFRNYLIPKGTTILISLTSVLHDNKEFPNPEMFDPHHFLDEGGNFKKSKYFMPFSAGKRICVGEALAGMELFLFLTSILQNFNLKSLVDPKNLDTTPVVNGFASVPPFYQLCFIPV
In data set [14] the target is DNA dC->dU-editing enzyme APOBEC-3G (Homo sapiens, UniProt Q9HC16). Description: APOBEC3G deaminase inhibitors, SAR follow-up, biochemical, fluorescence, single-stranded DNA substrate (AID 602136). The note with it: read-out: IC50_Mean. It counts as functional.
The target of data set [15] is Sphingosine 1-phosphate receptor 4 (Homo sapiens, UniProt O95977). Briefly: Late-stage fluorescence-based dose-response cell-based counterscreen assay to identify agonists of the Sphingosine 1-Phosphate Receptor 3 (S1P3): Sphingosine 1-Phosphate Receptor 4 (S1P4) agonist assay. In kind it is functional.
Data set [16] addresses Sphingosine 1-phosphate receptor 2 (Homo sapiens, UniProt O95136). Description: Late-stage fluorescence-based dose-response cell-based counterscreen assay to identify agonists of the Sphingosine 1-Phosphate Receptor 3 (S1P3): Sphingosine 1-Phosphate Receptor 2 (S1P2) agonist assay. It counts as functional.
For data set [17], the target named is Tyrosine-protein kinase Lck (Homo sapiens, UniProt P06239). In kind it is functional.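 Also: lck was assayed as one member of a kinase panel.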
For data set [18], the target named is BDNF/NT-3 growth factors receptor (Homo sapiens, UniProt Q16620). In kind it is functional.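 Also: NTRK2 measured as one member of a broad kinome-wide kinase profiling panel.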
BDNF/NT-3 growth factors receptor, sequence (Q16620 whole entry): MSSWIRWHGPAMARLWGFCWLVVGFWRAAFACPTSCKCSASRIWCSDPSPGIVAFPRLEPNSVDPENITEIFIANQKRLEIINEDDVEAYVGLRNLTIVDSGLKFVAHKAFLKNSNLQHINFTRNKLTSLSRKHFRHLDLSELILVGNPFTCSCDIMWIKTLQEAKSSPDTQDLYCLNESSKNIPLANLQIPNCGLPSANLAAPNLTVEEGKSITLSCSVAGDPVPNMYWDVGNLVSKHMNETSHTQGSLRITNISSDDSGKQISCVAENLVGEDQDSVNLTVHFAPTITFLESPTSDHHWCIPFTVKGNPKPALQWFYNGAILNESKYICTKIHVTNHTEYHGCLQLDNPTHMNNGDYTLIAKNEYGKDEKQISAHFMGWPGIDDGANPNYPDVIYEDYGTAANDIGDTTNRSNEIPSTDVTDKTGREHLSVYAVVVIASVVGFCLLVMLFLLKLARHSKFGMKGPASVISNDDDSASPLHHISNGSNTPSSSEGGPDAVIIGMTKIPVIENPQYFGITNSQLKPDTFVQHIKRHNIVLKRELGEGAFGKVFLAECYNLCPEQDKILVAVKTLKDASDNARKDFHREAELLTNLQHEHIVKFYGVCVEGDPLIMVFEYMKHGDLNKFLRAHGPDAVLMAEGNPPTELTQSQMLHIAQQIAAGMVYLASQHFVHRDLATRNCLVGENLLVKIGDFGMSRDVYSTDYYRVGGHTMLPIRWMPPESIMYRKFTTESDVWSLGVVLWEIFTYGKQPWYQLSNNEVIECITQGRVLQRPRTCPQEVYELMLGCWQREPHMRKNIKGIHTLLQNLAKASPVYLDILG
The target in data set [19] is Serine/threonine-protein kinase TAO1 (Homo sapiens, UniProt Q7L7X3). In kind it is functional.
In data set [20] the target is Rho-associated protein kinase 1 (Homo sapiens, UniProt Q13464). It counts as functional.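 Also: measured within a broad kinome-wide panel profiling many kinases.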
Rho-associated protein kinase 1, sequence (Q13464 whole entry): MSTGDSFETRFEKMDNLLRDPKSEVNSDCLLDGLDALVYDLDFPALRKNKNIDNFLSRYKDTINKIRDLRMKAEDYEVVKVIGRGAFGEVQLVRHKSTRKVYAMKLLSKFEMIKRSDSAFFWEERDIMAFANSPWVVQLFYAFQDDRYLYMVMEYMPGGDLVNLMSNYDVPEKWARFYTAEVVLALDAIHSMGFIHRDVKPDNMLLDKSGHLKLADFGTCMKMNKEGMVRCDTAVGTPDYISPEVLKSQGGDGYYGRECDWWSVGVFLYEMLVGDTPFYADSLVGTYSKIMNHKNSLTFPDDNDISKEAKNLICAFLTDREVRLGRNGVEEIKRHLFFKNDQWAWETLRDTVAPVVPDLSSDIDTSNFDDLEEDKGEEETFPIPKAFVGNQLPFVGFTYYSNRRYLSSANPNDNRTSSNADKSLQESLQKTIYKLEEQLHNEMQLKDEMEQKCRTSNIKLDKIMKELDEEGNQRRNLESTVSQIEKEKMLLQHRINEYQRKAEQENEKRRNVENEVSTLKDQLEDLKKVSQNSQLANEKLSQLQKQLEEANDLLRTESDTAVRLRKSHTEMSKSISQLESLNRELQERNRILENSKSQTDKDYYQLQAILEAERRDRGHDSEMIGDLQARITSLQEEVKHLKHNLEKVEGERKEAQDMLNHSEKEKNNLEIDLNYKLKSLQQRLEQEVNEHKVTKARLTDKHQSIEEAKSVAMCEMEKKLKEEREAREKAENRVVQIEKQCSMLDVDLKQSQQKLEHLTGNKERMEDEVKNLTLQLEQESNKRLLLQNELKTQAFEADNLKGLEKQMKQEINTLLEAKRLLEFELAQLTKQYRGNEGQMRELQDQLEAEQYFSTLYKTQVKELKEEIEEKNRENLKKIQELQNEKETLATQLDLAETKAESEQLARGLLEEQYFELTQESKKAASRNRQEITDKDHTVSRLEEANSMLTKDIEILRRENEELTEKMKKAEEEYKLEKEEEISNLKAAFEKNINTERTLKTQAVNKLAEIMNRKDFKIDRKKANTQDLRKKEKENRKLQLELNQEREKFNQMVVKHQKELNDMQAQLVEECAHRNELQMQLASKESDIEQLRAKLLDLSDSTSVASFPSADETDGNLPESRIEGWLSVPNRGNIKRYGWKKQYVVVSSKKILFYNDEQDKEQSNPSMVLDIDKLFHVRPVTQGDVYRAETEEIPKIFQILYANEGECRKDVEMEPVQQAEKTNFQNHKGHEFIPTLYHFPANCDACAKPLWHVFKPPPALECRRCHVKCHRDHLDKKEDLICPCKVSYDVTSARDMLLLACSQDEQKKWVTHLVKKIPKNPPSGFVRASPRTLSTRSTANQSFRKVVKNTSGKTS
Data set [21] concerns the target High affinity nerve growth factor receptor (Homo sapiens, UniProt P04629). In kind it is functional.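 Also: NTRK1 tested as one member of a kinome-wide profiling panel.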
The target of data set [22] is Calcium/calmodulin-dependent protein kinase type II subunit alpha (Homo sapiens, UniProt Q9UQM7). Description: Navigating the Kinome. Panel member name: CAMK2A. It counts as functional.
Calcium/calmodulin-dependent protein kinase type II subunit alpha, sequence (Q9UQM7 whole entry): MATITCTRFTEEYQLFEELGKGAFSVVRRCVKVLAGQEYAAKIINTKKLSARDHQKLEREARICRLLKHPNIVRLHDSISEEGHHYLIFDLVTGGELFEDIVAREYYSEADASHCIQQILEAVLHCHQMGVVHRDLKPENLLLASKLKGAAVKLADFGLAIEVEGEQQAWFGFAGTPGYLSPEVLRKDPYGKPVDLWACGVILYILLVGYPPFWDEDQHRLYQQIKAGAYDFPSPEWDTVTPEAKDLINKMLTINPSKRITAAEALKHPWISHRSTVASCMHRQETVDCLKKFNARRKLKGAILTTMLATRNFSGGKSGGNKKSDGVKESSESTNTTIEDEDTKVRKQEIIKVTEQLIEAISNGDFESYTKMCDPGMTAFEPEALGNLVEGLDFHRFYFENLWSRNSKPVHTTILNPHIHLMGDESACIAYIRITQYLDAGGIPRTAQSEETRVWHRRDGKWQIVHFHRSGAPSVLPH
In data set [23] the target is Hepatocyte growth factor receptor (Homo sapiens, UniProt P08581). It counts as functional.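 Also: kinase panel profiling across the kinome, with MET as the panel member.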
The target of data set [24] is Cyclin-dependent kinase 8 (Homo sapiens, UniProt P49336). Briefly: Navigating the Kinome. Panel member name: CDK8. It counts as functional.
Data set [25] addresses ALK tyrosine kinase receptor (Homo sapiens, UniProt Q9UM73). In kind it is functional.
For a further data set, the target named is Aurora kinase B (Homo sapiens, UniProt Q96GD4). It counts as functional.
Data set [26] has as its target Tyrosine-protein kinase Fyn (Homo sapiens, UniProt P06241). In kind it is functional.
Data set [27] addresses Dual specificity protein kinase CLK4 (Homo sapiens, UniProt Q9HAZ1). In kind it is functional.
The target of data set [28] is Serine/threonine-protein kinase pim-3 (Homo sapiens, UniProt Q86V86). In kind it is functional.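 Also: value obtained as one member of a broad kinase panel profiling effort.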
In data set [29] the target is Phosphorylase b kinase gamma catalytic chain, liver/testis isoform (Homo sapiens, UniProt P15735). It counts as functional.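 Also: PHKG2 measured as one member of a kinome-wide kinase panel.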

Active and inactive are the calls of the source.

For orientation: AC50 means the midpoint of the concentration-response curve, whichever way the signal moves. A word on the EC50: it is the concentration giving half of the maximal effect. As a reminder, the Ki is a dissociation constant, usually derived from enzyme kinetics or from competition with a known ligand.

Tyrosine-protein kinase Fyn, sequence (P06241 whole entry): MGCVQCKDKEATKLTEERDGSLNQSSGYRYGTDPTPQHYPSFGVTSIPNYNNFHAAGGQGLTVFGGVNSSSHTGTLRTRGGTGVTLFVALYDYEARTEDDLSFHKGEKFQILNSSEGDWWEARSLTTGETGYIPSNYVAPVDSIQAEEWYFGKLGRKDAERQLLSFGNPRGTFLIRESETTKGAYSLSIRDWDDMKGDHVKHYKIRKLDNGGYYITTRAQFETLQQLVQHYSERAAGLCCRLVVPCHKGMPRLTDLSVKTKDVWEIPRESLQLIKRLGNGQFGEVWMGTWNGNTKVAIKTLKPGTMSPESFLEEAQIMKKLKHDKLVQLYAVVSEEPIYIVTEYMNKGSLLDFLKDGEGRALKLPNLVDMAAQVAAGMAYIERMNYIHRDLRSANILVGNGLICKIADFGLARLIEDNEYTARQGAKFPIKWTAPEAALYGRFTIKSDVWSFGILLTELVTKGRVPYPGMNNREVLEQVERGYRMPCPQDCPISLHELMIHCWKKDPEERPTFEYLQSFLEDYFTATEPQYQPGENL

Regarding `CCCC1CCC(c2ccc(C(=N)NO)cc2)CC1` (centres undefined), the AC50 on HSP90 is 28.6 µM (active).
For `CCNc1nc(N)c(C(=O)c2ccc(Cl)s2)s1`, the EC50 in [1] is 1.21 µM (active); in [2] it was 233 nM (active); with H4, > 120 µM (not active); in [3], 238 nM (active); in data set [7] it was 190 nM (active); in [8] it was > 12 µM (not active). In addition, the values for the AC50 in [4], in [5] and in data set [6] were < 21.8 nM (active), 516 nM (active) and < 16 nM (active), respectively.
`COc1ccc(C2CC(C(F)(F)F)n3nc(C(=O)O)c(Cl)c3N2)cc1OC` (centres undefined): the values for the EC50 at Insulin-degrading enzyme [9], at Insulin-degrading enzyme [10] and with HEK293 [11] were 50.1 µM (inactive), > 54.7 µM (inactive) and > 54.7 µM (inactive), respectively. For the same compound, the IC50 with HEK293 [12] is > 89.2 µM (inactive).
As for `CCCCSc1nnc(-c2cc3c(C(F)(F)F)nn(C)c3s2)n1C`, the figures for the concentration at half-maximal activity (AC50) at Cytochrome P450 2C19 and at Cytochrome P450 2C9 were 20 µM (inconclusive) and “inconclusive”, respectively. In addition, the IC50 was > 99 µM (inactive) in [13] and 51.6 µM (inactive) in data set [14].
As for `CC1CCCCC1N(C(=O)c1cc(C2CC2)on1)C1CCCCCC1` (centres undefined), the EC50 in [15] and in [16] was > 50 µM (inactive) each time.
Take `Cc1cc(=O)[nH]nc1-c1ccc(NC(=O)Nc2cccc(Cl)c2)cc1`: the Ki in data set [17] was > 6.31 µM (inactive); in [18], 1.58 µM (active); in [19] it was > 6.31 µM (inactive); in [20], 2.51 µM (active); in data set [21], > 15.8 µM (inactive); in data set [22], > 7.94 µM (inactive). The Ki in data set [23] is 631 nM (active); in data set [24], 3.16 µM (active); in [25] it was > 6.31 µM (inactive); on Aurora kinase B, 631 nM (active); in [26], > 6.31 µM (inactive); in [27], 2 µM (active).
As to `CCOC(=O)C1=c2sc(=Cc3cccs3)c(=O)n2C(N)=C(C#N)C1c1cccs1` (centres undefined), the inhibition constant Ki in data set [28] was 6.31 µM (active); in data set [29] it was 5.01 µM (active).
